Data on 1 compound can be found in patent US10589078B2, “Metallic microneedles” (MICRODERMICS INC., priority 2013, dated 2020).

This data set is classed as in vitro ADME. The note with it: pig, 3 min, 174 μM. The procedure:
A 500 μm tall prototype nickel microneedle 120 fabricated using the method depicted in FIGS. 1A-1G was used to inject a fluorescent chemotherapeutic drug (doxorubicin) into pigskin. A backing plate of the microneedle was bonded to a drug container that was connected to a conventional syringe via a flexible plastic capillary tube. The syringe was filled with a 174 μM solution of doxorubicin in water. The syringe was placed in a commercial syringe pump system (from KD Scientific™ of Holliston, Mass.). The microneedle 120 was applied to a shaved pigskin sample. The pump was set to push the plunger to generate a constant flow rate of 0.2 μL/minute for 3 minutes. This flow rate was selected based on a study investigating the efficiency of transdermal drug injection using silicon microneedles (U. O. Häfeli, et al., (2009), Biomed. Microdevices, Vol. 11, pp. 943-950) which found an average delivery rate of 0.2 μL/minute through each needle in an injection trial. After the injection, the skin was cleaned and then scanned using confocal microscopy.

Regarding `COc1cccc2c1C(=O)c1c(O)c3c(c(O)c1C2=O)C[C@@](O)(C(=O)CO)C[C@@H]3O[C@H]1C[C@H](N)[C@H](O)[C@H](C)O1` [doxorubicin], the “depth of penetration of doxorubicin into the skin” value is recorded as “approximately 130 μm”.
